Molecules are shown by their SMILES. Some results are limits rather than exact numbers.

A word on the IC50: it is the concentration that inhibits the measured activity by half. Low values mean greater potency, high ones weaker potency.

For this test, the system named is IL-6. Put plainly: Human monocyte assay, LPS-stimulated IL-6. As to conditions: Monocyte; human monocytes, 1 μg/ml LPS, 5 hours. It is filed as cell-based. How it is done:
The assay was designed as in the reference, Physiol.
Peripheral blood mononuclear cells (hPBMC) were harvested from human blood and suspended in RPMI 1640 culture medium containing 10% FCS, 100 U/mL penicillin and […] streptomycin (assay medium). Monocytes in the hPBMCs were counted using a Coulter Counter following which the cells were resuspended at 2×10^5 monocytes/mL. A cell suspension containing 2×10^4 monocytes was aliquoted per well of a 96-well plate. Subsequently, the hPBMCs were incubated for 4-5 hours at 37° C., 5% CO2 (During the incubation, the monocytes adhered to the bottom of 96-well plastic culture plate). Following the incubation, the non-adherent lymphocytes were washed with assay medium and the adherent monocytes re-fed with assay medium. After a 48-hour incubation period (37° C., 5% CO2), monocytes were pretreated with various concentrations of representative compounds of present invention (refer to table 6 and 7) (prepared in DMSO) or vehicle (0.5% DMSO) for 30 minutes and stimulated with 1 μg/ml LPS (Escherchia coli 0111:B4, Sigma Chemical Co., St. Louis, Mo.). The incubation was continued for 5 hours at 37° C., 5% CO2. Supernatants were harvested, assayed for IL-6 and TNF-α by ELISA as described by the manufacturer (BD Biosciences, USA). Dexamethasone (10 μM) was used as standard for this assay. […] Biological results for both IL-6 and TNFα are indicated in Table 6 and Table 7 respectively.

`CN(/N=C/c1cnc2ccc(-c3cccnc3)cn12)S(=O)(=O)c1ccc(F)c(F)c1F` [Example 34, (E)-2,3,4-Trifluoro-N-methyl-N′-((6-(pyridin-3-yl)imidazo[1,2-a]pyridin-3-yl)methylene)benzenesulfonohydrazide]: the IC50 lay in the range of 0.001 to 5 µM.

`CN(/N=C/c1cnc2ccc(-c3cccnc3)cn12)S(=O)(=O)c1cc(F)c(Br)cc1F` [Example 35, (E)-4-bromo-2,5-difluoro-N-methyl-N′-((6-(pyridin-3-yl)imidazo[1,2-a]pyridin-3-yl)methylene)benzenesulfonohydrazide] gave a 50% inhibitory concentration (IC50) of 0.001 to 5 µM.

As to `CN(/N=C/c1cnc2ccc(-c3cccnc3)cn12)S(=O)(=O)c1ccc(F)cc1Br` [Example 36, (E)-2-bromo-4-fluoro-N-methyl-N′-((6-(pyridin-3-yl)imidazo[1,2-a]pyridin-3-yl)methylene)benzenesulfonohydrazide], the IC50 was ≥ 5 µM.

With `CN(/N=C/c1cnc2ccc(-c3cccnc3)cn12)S(=O)(=O)c1cccc(Cl)c1` [Example 39, (E)-3-chloro-N-methyl-N′-((6-(pyridin-3-yl)imidazo[1,2-a]pyridin-3-yl)methylene)benzenesulfonohydrazide], the IC50 was in the range of 0.001 to 5 µM.

As to `CN(/N=C/c1cnc2ccc(-c3cccnc3)cn12)S(=O)(=O)c1ccc(C(F)(F)F)cc1Cl` [Example 40, (E)-2-chloro-N-methyl-N′-((6-(pyridin-3-yl)imidazo[1,2-a]pyridin-3-yl)methylene)-4-(trifluoromethyl)benzenesulfonohydrazide], the IC50 was 0.001 to 5 µM.

Compound `CN(/N=C/c1cnc2ccc(-c3cccnc3)cn12)S(=O)(=O)c1ccc(F)cc1Cl` [Example 41, (E)-2-chloro-4-fluoro-N-methyl-N′-((6-(pyridin-3-yl)imidazo[1,2-a]pyridin-3-yl)methylene) benzenesulfonohydrazide] yielded an IC50 of 0.001 to 5 µM.

For `Cc1nc(S(=O)(=O)N(C)/N=C/c2cnc3ccc(-c4cccnc4)cn23)cn1C` [Example 42, (E)-N, 1,2-trimethyl-N′-((6-(pyridin-3-yl)imidazo[1,2-a]pyridin-3-yl)methylene)-1H-imidazole-4-sulfonohydrazide], the half-inhibitory concentration (IC50) was ≥ 5 µM.

As to `Cc1cc(S(=O)(=O)N(C)/N=C/c2cnc3ccc(-c4cccnc4)cn23)c(C)cc1Cl` [Example 43, (E)-4-chloro-N, 2,5-trimethyl-N′-((6-(pyridin-3-yl)imidazo[1,2-a]pyridin-3-yl)methylene) benzenesulfonohydrazide], the 50% inhibitory concentration (IC50) is ≥ 5 µM.

With `CN(/N=C/c1cnc2ccc(-c3cccnc3)cn12)S(=O)(=O)c1cc(F)ccc1F` [Example 44, (E)-2,5-difluoro-N-methyl-N′-((6-(pyridin-3-yl)imidazo[1,2-a]pyridin-3-yl)methylene) benzenesulfonohydrazide], the 50% inhibitory concentration (IC50) was in the range of 0.001 to 5 µM.

Turning to `CN(/N=C/c1cnc2ccc(-c3cccnc3)cn12)S(=O)(=O)c1ccc(I)cc1` [Example 46, (E)-4-Iodo-N-methyl-N′-((6-(pyridin-3-yl)imidazo[1,2-a]pyridin-3-yl)methylene)benzenesulfonohydrazide], the concentration for half-maximal inhibition (IC50) was ≥ 5 µM.

As to `CN(/N=C/c1cnc2ccc(-c3cccnc3)cn12)S(=O)(=O)c1ccc(-c2cc(C(F)(F)F)ccc2F)cc1` [Example 47, (E)-2′-Fluoro-N-methyl-N′-((6-(pyridin-3-yl)imidazo[1,2-a]pyridin-3-yl)methylene)-5′-(trifluoromethyl)biphenyl-4-sulfonohydrazide], the 50% inhibitory concentration (IC50) was ≥ 5 µM.

Compound `Cc1ccc(C)c(S(=O)(=O)N(C)/N=C/c2cnc3ccc(-c4cccnc4)cn23)c1` [Example 50, (E)-N, 2,5-trimethyl-N′-((6-(pyridin-3-yl)imidazo[1,2-a]pyridin-3-yl)methylene)benzenesulfonohydrazide] had an IC50 of 0.001 to 5 µM.

In turn, `CN(/N=C/c1cnc2ccc(-c3cccnc3)cn12)S(=O)(=O)c1cc(Br)ccc1Br` [Example 51, (E)-2,5-dibromo-N-methyl-N′-((6-(pyridin-3-yl)imidazo[1,2-a]pyridin-3-yl)methylene) benzenesulfonohydrazide] yielded an IC50 of 0.001 to 5 µM.

Consider `COc1ccc(OC)c(S(=O)(=O)N(C)/N=C/c2cnc3ccc(-c4cccnc4)cn23)c1` [Example 52, (E)-2,5-dimethoxy-N-methyl-N′-((6-(pyridin-3-yl)imidazo[1,2-a]pyridin-3-yl)methylene) benzenesulfonohydrazide], for which the IC50 was 0.001 to 5 µM.

With `COc1ccc(Cl)cc1S(=O)(=O)N(C)/N=C/c1cnc2ccc(-c3cccnc3)cn12` [Example 55, (E)-5-chloro-2-methoxy-N-methyl-N′-((6-(pyridin-3-yl)imidazo[1,2-a]pyridin-3-yl)methylene) benzenesulfonohydrazide], the IC50 is 0.001 to 5 µM.

The compound `CN(/N=C/c1cnc2ccc(-c3cccnc3)cn12)S(=O)(=O)c1ccc(Br)cc1OC(F)(F)F` [Example 56, (E)-4-bromo-N-methyl-N′-((6-(pyridin-3-yl)imidazo[1,2-a]pyridin-3-yl)methylene)-2-(trifluoromethoxy)benzenesulfonohydrazide] returned an IC50 of 0.001 to 5 µM.

In the case of `CN(/N=C/c1cnc2ccc(-c3cccnc3)cn12)S(=O)(=O)c1cc(C(F)(F)F)ccc1Br` [Example 57, (E)-2-bromo-N-methyl-N′-((6-(pyridin-3-yl)imidazo[1,2-a]pyridin-3-yl)methylene)-5-(trifluoromethyl)benzenesulfonohydrazide], the IC50 fell in the range of 0.001 to 5 µM.

The compound `CN(/N=C/c1cnc2ccc(-c3cccnc3)cn12)S(=O)(=O)c1ccccc1[N+](=O)[O-]` [Example 58, (E)-N-methyl-2-nitro-N′-((6-(pyridin-3-yl)imidazo[1,2-a]pyridin-3-yl)methylene)benzenesulfonohydrazide] showed an IC50 of 0.001 to 5 µM.

Take `CN(/N=C/c1cnc2ccc(-c3cccnc3)cn12)S(=O)(=O)c1ccccc1S(C)(=O)=O` [Example 59, (E)-N-methyl-2-(methylsulfonyl)-N′-((6-(pyridin-3-yl)imidazo[1,2-a]pyridin-3-yl)methylene) benzenesulfonohydrazide]: the concentration for half-maximal inhibition (IC50) was 0.001 to 5 µM.

Consider `CN(/N=C/c1cnc2ccc(-c3cccnc3)cn12)S(=O)(=O)c1ccccc1Oc1ccccc1` [Example 60, (E)-N-methyl-2-phenoxy-N′-((6-(pyridin-3-yl)imidazo[1,2-a]pyridin-3-yl)methylene)benzenesulfonohydrazide], for which the IC50 lay in the range of 0.001 to 5 µM.

As for `CCCCCCS(=O)(=O)N(C)/N=C/c1cnc2ccc(-c3cccnc3)cn12` [Example 61, (E)-N-methyl-N′-((6-(pyridin-3-yl)imidazo[1,2-a]pyridin-3-yl)methylene) hexane-1-sulfonohydrazide], the IC50 is 0.001 to 5 µM.

`CN(/N=C/c1cnc2ccc(-c3cccnc3)cn12)S(=O)(=O)c1cc(C(F)(F)F)ccc1N1CCOCC1` [Example 62, (E)-N-methyl-2-morpholino-N′-((6-(pyridin-3-yl)imidazo[1,2-a]pyridin-3-yl)methylene)-5-(trifluoromethyl)benzenesulfonohydrazide] registered an IC50 of 0.001 to 5 µM.

In the case of `Cc1ccc(S(C)(=O)=O)cc1S(=O)(=O)N(C)/N=C/c1cnc2ccc(-c3cccnc3)cn12` [Example 63, (E)-N,2-dimethyl-5-(methylsulfonyl)-N′-((6-(pyridin-3-yl)imidazo[1,2-a]pyridin-3-yl)methylene) benzenesulfonohydrazide], the IC50 was 0.001 to 5 µM.

`CN(/N=C/c1cnc2ccc(-c3cccnc3)cn12)S(=O)(=O)c1ccccc1Br` [Example 64, (E)-2-bromo-N-methyl-N′-((6-(pyridin-3-yl)imidazo[1,2-a]pyridin-3-yl)methylene) benzenesulfonohydrazide] returned a half-inhibitory concentration (IC50) of 0.001 to 5 µM.

In the case of `CN(/N=C/c1cnc2ccc(-c3cccnc3)cn12)S(=O)(=O)c1ccc(N2CCOCC2)nc1` [Example 66, (E)-N-methyl-6-morpholino-N′-((6-(pyridin-3-yl)imidazo[1,2-a]pyridin-3-yl)methylene) pyridine-3-sulfonohydrazide], the IC50 was in the range of 0.001 to 5 µM.

The compound `COC(=O)c1ccc(S(=O)(=O)N(C)/N=C/c2cnc3ccc(-c4cccnc4)cn23)n1C` [Example 67, (E)-Methyl 1-methyl-5-(1-methyl-2-((6-(pyridin-3-yl)imidazo[1,2-a]pyridin-3-yl)methylene) hydrazinylsulfonyl)-1H-pyrrole-2-carboxylate] had an IC50 of 0.001 to 5 µM.

In turn, `CN1CCOc2cc(S(=O)(=O)N(C)/N=C/c3cnc4ccc(-c5cccnc5)cn34)cnc21` [Example 68, (E)-N,4-dimethyl-N′-((6-(pyridin-3-yl)imidazo[1,2-a]pyridin-3-yl)methylene)-3,4-dihydro-2H-pyrido[3,2-b][1,4]oxazine-7-sulfonohydrazide] came in with a half-inhibitory concentration (IC50) of 0.001 to 5 µM.

With `CN(/N=C/c1cnc2ccc(-c3cccnc3)cn12)S(=O)(=O)c1cccnc1` [Example 69, (E)-N-methyl-N′-((6-(pyridin-3-yl)imidazo[1,2-a]pyridin-3-yl)methylene) pyridine-3-sulfonohydrazide], the concentration for half-maximal inhibition (IC50) lay in the range of 0.001 to 5 µM.

In turn, `CN(/N=C/c1cnc2ccc(-c3cccnc3)cn12)S(=O)(=O)c1ccc(Oc2ccccc2)cc1` [Example 70, (E)-N-methyl-4-phenoxy-N′-((6-(pyridin-3-yl)imidazo[1,2-a]pyridin-3-yl)methylene)benzenesulfonohydrazide] came in with an IC50 of 0.001 to 5 µM.
